Measured values reported in patent US20170290783A1, “Rabbit Maternal Pheromones to Enhance the Weight of Weaning Piglets” (Animal Biotech, LLC, priority 2016, published 2017).

Assays:
[1] = system: re-grouped, stressed pigs; conditions: cited from earlier work
weaning piglets = assay: Post-weaning piglet performance (body weight, ADG, ADFI, G:F) after a single application of rabbit maternal pheromone to the nursery feeder; format: in vivo, pig
Description: Piglets (n=120) were randomly selected from nursing sows. A total of 120 piglets, 60 males and 60 females, were weaned at approximately 3 weeks of age and transported for four hours before entering the nursery site. Piglets were housed in groups of three, single-sex (either barrows or gilts), and had ad libitum access to feed and water. A total of 40 pens (the experimental unit) were available; 10 each of male and female experiencing control or pheromone therapy. Space allowance was in excess of industry standards (0.6 m^2 per piglet). Body weight and feed intake were each measured once per week from commencement of weaning until 35 days after weaning.
Control and pheromone-treated piglets were housed in separate rooms, with no airflow between the rooms to ensure no cross contamination between air spaces. To expose piglets to the rabbit maternal pheromone, test piglet feeders received 25 mL of the trans-2-methyl-2-butenal solution (1 μg/mL in isopropyl alcohol) while the control piglet feeders received 25 mL of isopropyl alcohol only. Feeders were sprayed immediately before the arrival of piglets to the nursery site.
Half of the pigs and pens in each group were transported and half were moved directly from the farrowing crates to the adjacent nursery building. The experimental design was a completely random design with a two by two factorial arrangement of transport (or not) and trans-2-methyl-2-butenal or placebo control.
Average daily gain (ADG, kg. per day) was calculated from the body weights both weekly and over the entire period. Average daily feed intake (ADFI, kg. per pig per day) was calculated based on weekly feed consumption. Gain to Feed (G:F) was calculated each week and over the 28-day post-weaning period.
Data were analyzed using SAS software (SAS, 2012). PROC Univariate was used to establish that the overall ADG, ADFI and G:F ratio data were normally distributed. The general linear models procedure was used with pen as the experimental unit. There were 40 experimental units (pens) in total. The original model contained the factorial effects of (A) trans-2-methyl-2-butenal applied during transport or not, (B) trans-2-methyl-2-butenal applied to the nursery feeder or not, and (3) pig sex (barrow vs. gilt) and all possible interactions. […] A final simplified analysis was performed with only the effects of trans-2-methyl-2-butenal applied in the nursery or not with 20 pens per treatment.

Row | Structure (SMILES) | Pig aggressive behaviors ([1]; pig, in vivo) | Weight gain ([1]; re-grouped, stressed pigs) | Piglet body weight vs control (weaning piglets; 14 days after weaning) | G:F (gain to feed) (weaning piglets; P>0.10 vs control) | Piglet body weight vs control (weaning piglets; at weaning and 7 days later, 25 mL of 1 μg/mL in isopropyl alcohol sprayed on feeder) | Body weight at weaning (weaning piglets; at weaning, pigs to experience treatment, control 6.5±0.06 kg, P>0.10) | Overall ADG (average daily gain) (weaning piglets; both the 4 and 5 week period after weaning, P<0.05 vs control) | Piglet body weight vs control (weaning piglets; days 21, 28 and 35 after weaning, P<0.05) | ADFI (average daily feed intake) (weaning piglets; during 4 weeks after weaning, P<0.05 vs control) | Stimulatory effect on feed intake (weaning piglets; first week after weaning) | Improvement in body weight vs control (weaning piglets; five weeks after weaning, P=0.01) | Body weight five weeks after weaning (weaning piglets; five weeks after weaning, control 16.5±0.31 kg, P=0.01) | ADFI and ADG (weaning piglets; single application to the feeder in the post-weaning environment) | Overall performance measures, effect of application during transport (weaning piglets; transport application, P>0.10) | Post-weaning ADG (weaning piglets; weeks 3, 5 and overall, P<0.05) | ADFI (weaning piglets; weeks 3 and 4 after weaning and overall 5-week growth period, P<0.05) | Stimulatory effect on feed intake (weaning piglets; weeks two to five after weaning)
1 | C[C@]12CCC(=O)C[C@@H]1CC[C@@H]1[C@@H]2CC[C@]2(C)C=CC[C@@H]12 [Androstenone] | reduced | temporarily improve |  |  |  |  |  |  |  |  |  |  |  |  |  |  | 
2 | C/C=C(\C)C=O [trans-2-methyl-2-butenal] |  |  | tended (P=0.06) to be heavier | not influenced | statistically similar | 6.6 ± 0.025 kg | increase | significantly heavier | increase | very small (and not significant) | 8.5% | 17.9 ± 0.31 kg | stimulate | not significant | increased | higher | increases in magnitude
